Assay results published in patent US10611797B2, “Peptide having anticancer activity, and pharmaceutical composition and dietary supplement composition for preventing and treating cancer, both of which contain same as active ingredient” (IUCF-HYU (INDUSTRY-UNIVERSITY COOPERATION FOUNDATION …, priority 2015, dated 2020).
No end group written: not given here. *: point of attachment. Biotin = O=C1N[C@H]2[C@H](CS[C@H]2CCCCC(=O)*)N1

Key:
[1] = test system: MDA-MB-231 cell line and MCF7 cell line; assay: MTT assay of Peptide 5-2CB; format: cell-based, human
Source text: To support this assumption, a CP2c protein region with which Peptide 5-2C interacts and amino acids in the region directly binding to Peptide 5-2C need to be identified. Thus, an attempt was made to obtain mutant CP2c proteins in which polar amino acids present in the CP2c region binding with Peptide 5 shown in FIG. 1 were substituted with Ala and analyze the binding of the mutant CP2c proteins with Peptide 5-2C by enzyme-linked immunosorbent assay (ELISA). To facilitate this analysis, Peptide 5-2CB was synthesized in which biotin tag is bonded to the C-terminal Pro residue of Peptide 5-2C. To confirm whether Peptide 5-2CB induces cancer cell-specific growth interruption and apoptosis, like Peptide 5-2C, MTT assay was conducted on two different batches of Peptide 5-2CB in MDA-MB-231 cell line and MCF7 cell line by the same method as in Example 5.1. IC50 values were also calculated from the results of MTT assay. To obtain 19 mutant CP2c proteins in which polar amino acids present in the CP2c region binding with Peptide 5-2C were substituted with Ala, oligonucleotides having sequences encoding the corresponding mutant amino acids were synthesized and site-directed mutagenesis was carried out. The base sequences encoding the mutant CP2c genes were cloned into the pGEX4 vector and mutant GST-fusion CP2c proteins were purified using beads bound with antibody against GST-tag. […]

[2] = molecular target: T1, CP2c (Mus musculus, UniProt Q9ERA0); conditions: Kim et al., Analytical Biochemistry 2013; cited from earlier work
T1 construct: 5 μg of the nuclear extract and an [α-32p] dCTP-labeled DNA probe; endogenous in cells; host or cells: MEL (murine erythroid leukemia) cells, HMBA-differentiated, nuclear extract
T1 sequence (Q9ERA0 1-502): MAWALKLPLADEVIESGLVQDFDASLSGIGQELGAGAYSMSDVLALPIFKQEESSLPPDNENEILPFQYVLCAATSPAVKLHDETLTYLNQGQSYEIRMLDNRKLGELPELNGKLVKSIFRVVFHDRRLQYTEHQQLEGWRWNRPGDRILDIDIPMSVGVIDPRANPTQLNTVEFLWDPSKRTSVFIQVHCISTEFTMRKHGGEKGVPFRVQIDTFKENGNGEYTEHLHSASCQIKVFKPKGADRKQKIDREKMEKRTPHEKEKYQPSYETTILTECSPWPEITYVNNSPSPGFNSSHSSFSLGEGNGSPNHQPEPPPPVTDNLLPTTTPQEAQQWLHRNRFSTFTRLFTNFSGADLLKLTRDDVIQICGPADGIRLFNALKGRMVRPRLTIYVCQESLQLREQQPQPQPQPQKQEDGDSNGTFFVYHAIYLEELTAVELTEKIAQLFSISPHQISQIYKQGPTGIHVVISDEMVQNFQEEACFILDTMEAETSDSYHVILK

[3] = molecular target: T1, CP2c; assay: DNA immunoprecipitation (DIP) assay of CP2c-DNA binding; conditions: 0.2, 0.5, and 1 μg peptide; MEL nuclear extract; α-globin promoter probe
Method: To analyze whether the five peptides identified in Example 1.1 bind to CP2c in cells to affect the ability of CP2c to bind to DNA, DNA immunoprecipitation (DIP) assay was performed as disclosed in another preceding research conducted by the present inventors (Kim et al., A DNA immunoprecipitation assay used in quantitative detection of in vitro DNA-protein complex binding, Analytical Biochemistry. 2013; 441: 147-151).
In summary, the differentiation of a murine erythroid leukemia (MEL) cell line was induced by treatment with 5 mM hexamethylene bisacetamide (HMBA) and, on day 2 after differentiation, a cellular nuclear extract was separated. […]
Subsequently, 5 μg of the nuclear extract and an [α-32p] dCTP-labeled DNA probe (a sequence corresponding to the common CP2c binding site present in mouse α-globin promoter and between −156 and −124 in the start codon of the α-globin gene, see the paper of Kim et al. for details of the sequence) were allowed to react with a binding buffer (4% glycerol, 10 mM Tris-HCl, 1 mM DTT, 1 mM EDTA, and 0.1% NP-40) for 15 min, and gradually increasing amounts (0.2, 0.5, and 1 μg) of the identified CP2c binding peptides (Peptide 5, Peptide 8, Peptide 13, Peptide 21, and Peptide 31) were added thereto. […] The CP2c protein was removed from the DNA probe and the remaining amount of the DNA probe was measured using a scintillation counter. […]

[4] = test system: BEAS2B and MCF10A normal epithelial cell lines
Method: (§1) Liver cancer cell lines (HepG2, Hep3B) were inoculated into 96-well plates at a density of 3000 cells/well, and then 50 μl of culture solution was added thereto. Cells were cultured at 37° C. and 5% CO2 for 1 h. […] Cells were cultured at 37° C. and 5% CO2 for 24, 48, 72, and 96 h. After completion of the culture, the remaining culture solution was removed from the well plates, the cultures were diluted with MTT solution (3-(4,5-dimethylthiazol-2-yl)-2,5-diphenyltetrazole bromide) to a final density of 500 μg/ml, and cells were cultured at 37° C. and 5% CO2 for 3 h. The remaining MTT solution was removed and 150 μl of dimethyl sulfoxide (DMSO) was added. The reaction was carried out at room temperature for 20 min. After completion of the reaction, absorbance was measured using a microplate reader.

[5] = test system: glioblastoma cell lines (U251, U87MG, U343); assay: MTT cell viability, glioblastoma cell lines; format: cell-based, human; conditions: 0-10 μM, 24-96 h
Method: as §1

[6] = test system: human embryonic stem cells (hESCs, H9)
Source text: MEF cells labeled with rhodamine were often used to distinguish them from hESC-derived cells.

[7] = test system: CP2c; assay: Luciferase reporter assay of CP2c transcriptional activity in 293T cells; format: cell-based, human; conditions: 2 μM, 48 h, wild-type CP2c binding sites, compared with FQI1
Method: 293T cells were inoculated into a 12-well plate at a density of 1×10^5 cells/well. 12 h after inoculation, cells were transfected with combinations of a reporter vector (the wild-type reporter links the enhancer sequence of the GATA-1 gene including twice repeated CP2c-binding sites to the upstream of the luciferase gene and Mut 1/3, Mut 2/4, and Mut 1-4 reporters cause mutations of the CP2c binding sites present in the enhancer sequence) and various Flag-CP2c, HA-CP2b, and HA-PIAS1 expression vectors by using the effectene method. After 1-h culture, cells were treated with FQI1, Peptide 5C, and Peptide 5-2C at concentrations of 2 μM, followed by 48-h culture. Cells were harvested and lysed in 250 μl of passive cell lysis buffer (Promega) to obtain an extract. 20 μl of the cell extract and a dual-luciferase assay kit (Promega) were used to measure the activity of the labeled luciferase gene in GLOMAX (Promega) (the expression of each expression vector was confirmed by Western blotting).

[8] = test system: breast cancer cell lines (MCF7, MDA-MB-231); assay: MTT cell viability, breast cancer cell lines; format: cell-based, human; conditions: 0-10 μM, 24-96 h
Method: as §1

[9] = test system: liver cancer cell lines (HepG2, Hep3B); assay: MTT cell viability, liver cancer cell lines; format: cell-based, human; conditions: 0-10 μM, 24-96 h
Method: as §1

[10] = test system: cancer cell lines (HepG2, Hep3B, 293T, MCF-7, MDA-MB-231, K562, HEL, HL60, U251, U373MG, U87MG); assay: Microscopic observation of growth inhibition and apoptosis, cancer cell lines; format: cell-based, human; conditions: 2 μM, 48 h
Method: (§2) Liver cancer cell lines (HepG2, Hep3B), a human embryonic kidney cell line (293T), breast cancer cell lines (MCF-7, MDA-MB-231), blood tumor cell lines (K562, HEL, HL60), glioblastoma cell lines (U251, U373MG, U87MG), a mammary epithelial cell line (MCF10A), a lung epithelial cell line (BEAS2B), human mesenchymal stem cells (hMSCs), and mouse primary T cells (resting and activated T cells) were inoculated into 96-well plates at a density of 3,000 cells/well, supplemented with 50 μl of culture solution, and cultured at 37° C. and 5% CO2 for 1 h. […] After completion of the culture, cells were observed under an inverted phase contrast microscope and their morphological changes were imaged.

[11] = test system: human embryonic kidney cancer cell line (293T); assay: MTT cell viability, 293T; format: cell-based; conditions: 0-10 μM, 24-96 h
Method: as §1

[12] = test system: human blood cancer cell lines (K562, HEL, HL60); assay: MTT cell viability, human blood cancer cell lines; format: cell-based; conditions: 0-10 μM, 24-96 h
Method: as §1

[13] = test system: normal cell lines (MCF10A, BEAS2B, hMSCs, mouse primary T cells)
Method: as §2

[14] = molecular target: T2, GST-CP2c wild type (UniProt Q9ERA0 Q9ERA0:1-502); assay: pulldown; DNA-IP, values only in figure; conditions: tags: GST fusion, E. coli; label: 32P
T2 sequence: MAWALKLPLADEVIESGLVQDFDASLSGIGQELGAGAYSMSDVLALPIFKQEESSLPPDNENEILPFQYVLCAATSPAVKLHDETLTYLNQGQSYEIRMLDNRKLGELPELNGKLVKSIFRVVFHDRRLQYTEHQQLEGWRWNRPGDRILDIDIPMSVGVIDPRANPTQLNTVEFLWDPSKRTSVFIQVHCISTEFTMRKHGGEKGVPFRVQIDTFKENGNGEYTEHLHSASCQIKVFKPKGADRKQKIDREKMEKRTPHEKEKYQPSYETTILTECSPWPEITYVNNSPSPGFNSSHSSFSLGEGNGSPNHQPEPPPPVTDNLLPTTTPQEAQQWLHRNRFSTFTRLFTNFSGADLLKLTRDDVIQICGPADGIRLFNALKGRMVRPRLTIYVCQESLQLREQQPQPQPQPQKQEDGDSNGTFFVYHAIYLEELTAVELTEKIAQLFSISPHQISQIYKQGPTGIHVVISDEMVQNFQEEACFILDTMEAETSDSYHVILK

Molecule: Peptide 5-2CB: biotin-tagged Lys linked to the C-terminal Cys residue of Peptide 5-2C (NYPQRPCRGDKGPDCK(Biotin); not fully specified; cysteine pairing not given here)
- IC50 compared with Peptide 5-2C ([1]; 48 h): had IC50 values similar to Peptide 5-2C
- cancer cell growth interruption and apoptosis (MTT) ([1]; two batches, increasing concentrations): induced cancer cell-specific cell growth interruption and apoptosis

Molecule: HERRESNYPQRP [Peptide 5]
- inhibition of CP2c-DNA binding (DNA immunoprecipitation) [2]: inhibits CP2c-DNA binding in a concentration-dependent manner
- inhibition of CP2c-DNA binding (DIP assay) [3]: specifically inhibited the CP2c-DNA binding in a concentration-dependent manner

Molecule: Ac-HERRESNYPQRPCRGCRGDKGPDC-Amide (Ac-HERRESNYPQRPCRGCRGDKGPDC-NH2; ends and bridges not checked) [Peptide 5C]
- growth inhibition and apoptosis induction of normal control cell lines (IC50 calculation) [4]: inhibited cell growth and induced apoptosis, similarly to the treatment with Peptide 5C
- relative viability (MTT), glioblastoma cell lines, compared with FQI1 [5]: more effectively inhibited the growth of the glioblastoma cell lines and induced apoptosis than FQI1
- cytotoxicity (MTT) in hESCs [6]: slight cytotoxicity at high concentrations
- CP2c-mediated transcriptional activity (luciferase reporter) [7]: effectively inhibit CP2c-mediated transcriptional activity compared to FQI1
- relative viability (MTT), breast cancer cell lines, compared with FQI1 [8]: more effectively inhibited the growth of the breast cancer cell lines and induced apoptosis than FQI1
- relative viability (MTT), liver cancer cell lines, compared with FQI1 [9]: more effectively inhibited the growth of the liver cancer cell lines and induced apoptosis than FQI1
- growth inhibition and apoptosis induction of cancer cell lines (microscopy) [10]: specifically inhibited the growth of the cancer cell lines and induced apoptosis
- relative viability (MTT), 293T, compared with FQI1 [11]: inhibited the growth of the glioblastoma cell lines and induced apoptosis similarly to FQI1
- relative viability (MTT), K562, HEL, HL60, compared with FQI1 [12]: slightly effectively inhibited the growth of the glioblastoma cell lines and induced apoptosis compared to FQI1
- effect on normal cell lines (microscopy) [13]: without substantially affecting the normal cell lines

B1: alpha-globin promoter CP2c site probe (dsDNA)
DNA 1: GATCCCAAGTTTTACTCGGTAGAGCAAGCACAAACCAGG
DNA 2: CCTGGTTTGTGCTTGCTCTACCGAGTAAAACTTGGGATC
- binding result [14]: binds
